Source: patent US5637584A, “Solvate of olanzapine” (Eli Lilly and Company, priority 1995, dated 1997)

Columns and labels:
catalepsy = test: induction of catalepsy; format: in vivo; conditions: compared with doses required to block conditioned avoidance response
[1] = tested on: conditioned avoidance response; test: conditioned avoidance response in rats; format: in vivo
5-HT2B receptor = 5-HT2B receptor activity
[2] = tested on: apomorphine-induced climbing behavior; test: apomorphine-induced climbing behavior in mice; format: in vivo
Description: (§1) The Form I olanzapine prepared by the process of this invention has useful central nervous system activity. […] For example, the anhydrous Form I compound has been assessed in a number of standard behavior tests predictive of antipsychotic activity. The claimed compound antagonised apomorphine-induced climbing behavior and hypothermia in mice. See Moore, N. A. et al Psychopharmacology 94 (2), 263-266 (1988).

[3] = tested on: apomorphine-induced hypothermia; test: apomorphine-induced hypothermia in mice; format: in vivo
Description: as §1

[4] = stability of the anhydrous polymorph; format: physicochemical; conditions: suitability for pharmaceutical formulations
[5] = detection of radiolabelled compound in saliva; format: in vivo
Method: The anhydrous Form I 2-methyl-4-(4-methyl-1-piperazinyl)-10H-thieno-[2,3-b][1,5]benzodiazepine compound is effective over a wide dosage range, the actual dose administered being dependent on the condition being treated. For example, in the treatment of adult humans, dosages of from 0.25 to 30 mg, preferably from 1 to 20 mg, per day may be used. A once a day dosage is normally sufficient, although divided doses may be administered. For treatment of central nervous system disorders, a dose range of from 1 to 30 mg, preferably 2.5 to 20 mg per day is suitable.

| SMILES | induction of catalepsy (catalepsy) | inhibition of conditioned avoidance response [1] | 5-HT2B receptor activity (5-HT2B receptor) | antagonism of apomorphine-induced climbing behavior [2] | antagonism of apomorphine-induced hypothermia [3] | stability of crystal form [4] | detection in saliva [5] |
| --- | --- | --- | --- | --- | --- | --- | --- |
| Cc1cc2c(s1)Nc1ccccc1N=C2N1CCN(C)CC1 [anhydrous Form I olanzapine, 2-methyl-4-(4-methyl-1-piperazinyl)-10H-thieno[2,3-b][1,5]benzodiazepine] | induces cataleptsy only at higher doses | inhibits | 5-HT2B receptor activity | antagonised | antagonised | stable |  |
| Cc1cc2c(s1)Nc1ccccc1N=C2N1CCN(C)CC1 [anhydrous Form II 2-methyl-4-(4-methyl-1-piperazinyl)-10H-th] [2-methyl-4-(4-methyl-1-piperazinyl)-10H-thieno[2,3-b][1,5]benzodiazepine] |  |  |  |  |  | metastable |  |
| Cc1cc2c(s1)Nc1ccccc1N=C2N1CCN(C)CC1 [2-methyl-4-(4-methyl-1-piperazinyl)-10H-thieno-[2,3b][1,5]benzodiazepine] |  |  |  |  |  |  | can be detected in the saliva |
